Experiment in all cases: growth of human tumour cells (NCI), 48 h
Assay [1] relates to ACHN renal.
Assay [2] relates to CCRF-CEM leukemia.
Assay [3] concerns COLO 205 colon.
Assay [4] has as its system HS 578T breast.
Assay [5] concerns K-562 leukemia.
Assay [6] relates to M14 melanoma.
Assay [7] deals with MALME-3M melanoma.
Assay [8] relates to MDA-MB-435.
Assay [9] deals with RPMI-8226 leukemia.
The test system of assay [10] is RXF 393 renal.

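How tested: cells in 96-well plates exposed to compound for 48 hours at five concentrations. At the TGI there is no net growth.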

For 27 molecules, TGI results are on record in PubChem BioAssay (NCI).

`COc1cc2[nH]c(-c3ccccc3)cc(=O)c2cc1OC`: the TGI in assay [1] was above 100 µM; in assay [2] it was above 65.6 µM; in [3], above 33.3 µM; in assay [4], above 100 µM; in [5] it was above 100 µM; in [6], above 76.2 µM. The TGI in [7] was above 100 µM; in assay [8] it was 12.2 µM; in assay [9] it was above 100 µM; in [10], above 72.7 µM.

In the case of `COc1ccc2c(c1)CC[C@@H]1[C@@H]2CC[C@]2(C)/C(=N/OCCN3CCCCC3)CC[C@@H]12`, the TGI in assay [1] turned out to be 21.3 µM; in [2], 10.4 µM; in [3], 3.18 µM; in [4] it was 26.6 µM; in assay [5] it was 9.62 µM; in assay [6] it was 5.88 µM. The TGI in assay [7] stood at 4.89 µM; in assay [8], 16.9 µM; in [9], 6.35 µM; in assay [10] it was 8.17 µM.

For the molecule `Fc1cccc2nc(-c3ccccc3)cc(OCc3ccccc3)c12`, the TGI in assay [1], in [2], in [3], in [4], in assay [5] and in assay [6] was above 100 µM throughout. Besides, the TGI in assay [7], in assay [8], in assay [9] and in assay [10] was above 100 µM in each case.

In the case of `COc1ccc(-c2cn3c(n2)sc2cc(C)ccc23)cc1`, the TGI in [1] was above 100 µM; in [2], above 100 µM; in [3], 19.6 µM; in assay [4], 67.5 µM; in assay [5] it was above 100 µM; in assay [6], above 100 µM. The TGI in assay [7] was above 100 µM; in assay [8], 63.2 µM; in [9], above 100 µM; in assay [10] it was 35.8 µM.

With `O=C1NC(N2CCOCC2)=N/C1=C\c1ccccc1O`, the TGI in assay [1], in assay [2], in assay [3], in assay [4], in assay [5] and in [6] was above 100 µM each time. Also, the TGI in assay [7], in [8], in assay [9] and in [10] was above 100 µM throughout.

As to `COc1cc(C2c3cc4c(cc3OC(N3CCOCC3)C2C)OCO4)cc(OC)c1O` (stereo unspecified), the TGI in [1] is above 74.9 µM; in [2], above 100 µM; in assay [3], 41.9 µM; in assay [4], 25.6 µM; in assay [5] it was above 75.5 µM; in assay [6], above 100 µM. Also, the TGI in [7] was 16.2 µM; in [8] it was 6.27 µM; in assay [9], above 100 µM; in [10], 85.4 µM.

In the case of `CN(C)Cc1cc(C(=O)/C=C/c2ccc(/C=C/C(=O)c3cc(CN(C)C)c(O)c(CN(C)C)c3)cc2)cc(CN(C)C)c1O`, the TGI in [1] was above 100 µM; in assay [2], above 100 µM; in assay [3], 28.2 µM; in assay [4], above 100 µM; in assay [5], above 100 µM; in assay [6], 46.8 µM. The TGI is above 100 µM in assay [7], 79.7 µM in [8], 65.5 µM in assay [9] and above 100 µM in [10].

On to `C=C(Br)CN(C#N)CC(=C)Br`, for which the TGI in assay [1], in assay [2], in [3], in assay [4], in assay [5] and in assay [6] was above 100 µM throughout. In addition, the TGI in assay [7], in assay [8], in [9] and in [10] was above 100 µM each time.

Regarding `NC1CCC(c2cc3ccccc3s2)(N2CCCCC2)CC1` (stereo unspecified), the TGI in assay [1] is 12.5 µM; in [2] it was 2.45 µM; in assay [3], 3.19 µM; in assay [4] it was 20.5 µM; in [5] it was 3.44 µM; in assay [6] it was 2.88 µM. Also, the TGI in [7] worked out at 7.79 µM; in [8] it was 2.63 µM; in assay [9], 2.28 µM; in assay [10], 21.2 µM.

Turning to `COC(=O)c1c(O)ccc2c1c1c(n2C)C(=O)c2ccccc2C1=O`, the TGI in assay [1] is 35.8 µM; in [2] it was 51.9 µM; in assay [3], above 100 µM; in assay [4], 42.2 µM; in assay [5] it was above 100 µM; in assay [6] it was above 100 µM. Moreover, the TGI in [7] was above 100 µM; in [8], above 100 µM; in assay [9], 64.8 µM; in [10], 42 µM.

With `COC(=O)/C=C1/OC(c2ccccc2)=C(Cl)C1=O`, the TGI in assay [1] was found to be 33 µM; in assay [2] it was 19.9 µM; in assay [3], 30.1 µM; in assay [4], 66.8 µM; in assay [5], 25.9 µM; in assay [6], 35.2 µM. Moreover, the TGI was 36 µM in [7], 39.5 µM in assay [8], 22.5 µM in assay [9] and 35.9 µM in [10].

Take `CCN(CC)C(=O)CCCCCCCCC1CO1` (stereo unspecified): the TGI in [1], in assay [2], in [3], in assay [4], in assay [5] and in assay [6] was above 100 µM each time. In addition, the TGI in assay [7], in assay [8], in [9] and in assay [10] was above 100 µM throughout.

On to `CC1=Nn2c(nc3sc4c(c3c2=O)CCCC4)SC1`, for which the TGI in assay [1] was above 100 µM; in assay [2], above 76.3 µM; in assay [3], above 100 µM; in assay [4], above 100 µM; in assay [5], above 100 µM; in assay [6] it was above 100 µM. Besides, the TGI in [7], in assay [8], in [9] and in assay [10] was above 100 µM each time.

With `Clc1ccc(-c2nc(-c3ccc(Cl)cc3)[s+]s2)cc1`, the TGI in assay [1] is above 100 µM; in assay [2] it was 98.6 µM; in [3] it was above 100 µM; in [4] it was above 100 µM; in assay [5], above 100 µM; in [6], above 100 µM. In addition, the TGI in assay [7] was 77.7 µM; in assay [8] it was above 100 µM; in assay [9], 90.6 µM; in [10], above 100 µM.

Consider `CN(C)c1ccc(C(c2ccc(N(C)C)cc2)c2ccc([N+](=O)[O-])cc2)cc1`, for which the TGI in [1], in assay [2], in assay [3], in assay [4], in assay [5] and in assay [6] was above 100 µM each time. For the same molecule, the TGI in assay [7], in [8], in assay [9] and in [10] was above 100 µM throughout.

`O=C(O)C(Cc1cccs1)C(=O)O`: the TGI in assay [1], in [2], in assay [3], in assay [4], in assay [5] and in [6] was above 100 µM in each case. Further, the TGI in assay [7], in [8], in [9] and in assay [10] was above 100 µM each time.

Turning to `O=[N+]([O-])C(=C(NCc1ccccc1)NCc1ccccc1)C(Cl)=C(Cl)Cl`, the TGI was 55.9 µM in assay [1]; 50.7 µM in assay [2]; 36.1 µM in assay [3]; above 100 µM in assay [4]; 54.2 µM in [5]; 75.8 µM in assay [6]. For the same molecule, the TGI in [7] is 55.7 µM; in [8], 46.7 µM; in [9], 68.4 µM; in [10], 98.4 µM.

With `Cc1nc2ccccc2n1CCc1nc2ccccc2s1`, the TGI in [1], in assay [2], in assay [3], in [4], in [5] and in assay [6] was above 100 µM each time. Besides, the TGI in [7], in assay [8], in assay [9] and in assay [10] was above 100 µM throughout.

For the molecule `CC1CC[C@]2(C(=O)O)CCC3(C)C(=C2[C@H]1C)C=CC1[C@@]2(C)CC[C@H](O)C(C)(C)C2CC[C@]13C` (stereo partly specified), the TGI is 48.2 µM in assay [1]; above 100 µM in assay [2]; above 100 µM in assay [3]; above 100 µM in assay [4]; above 100 µM in assay [5]; above 100 µM in [6]. For the same molecule, the TGI in assay [7] was 73.2 µM; in [8], above 100 µM; in assay [9] it was above 100 µM; in assay [10] it was 29 µM.

For the molecule `CCN(CC)CCNc1ccc(N=Nc2ccc(S(N)(=O)=O)cc2)c2ccccc12`, the TGI was 38.8 µM in assay [1]; 38.3 µM in assay [2]; above 100 µM in [3]; 55.9 µM in assay [4]; above 100 µM in assay [5]; 23.3 µM in assay [6]. The TGI is 36 µM in assay [7], 23.6 µM in assay [8], 18.7 µM in assay [9] and 12.7 µM in assay [10].

Take `OC1CN=C2c3ccccc3C(O)(c3ccc(Cl)cc3)N2C1` (stereo unspecified): the TGI in assay [1] was above 100 µM; in assay [2], above 100 µM; in assay [3] it was 37.8 µM; in assay [4], above 100 µM; in assay [5] it was above 100 µM; in assay [6], 30.4 µM. The TGI in [7], in assay [8], in assay [9] and in assay [10] was above 100 µM in each case.

On to `O=c1[nH]cnc2c1ncn2[C@H]1CO[C@@H](CO)[C@@H]1O`, for which the TGI in assay [1], in [2], in assay [3], in assay [4], in [5] and in assay [7] was above 100 µM throughout. Further, the TGI in assay [8], in [9] and in [10] was above 100 µM throughout.

`COc1cccc(/C=C/C2=NN(c3cccc(S(=O)(=O)O)c3)C3(C2)SCC(=O)N3c2nc3ccccc3s2)c1` (stereo unspecified): the TGI was above 100 µM in assay [1]; 88.3 µM in [2]; above 100 µM in [3]; above 100 µM in assay [4]; above 100 µM in assay [5]; above 100 µM in assay [6]. For the same molecule, the TGI was above 100 µM in assay [7], 66.6 µM in assay [8], 52.4 µM in assay [9] and above 100 µM in assay [10].

Turning to `S=C1CC(c2ccc(Cl)cc2)Sc2ccccc2N1` (stereo unspecified), the TGI in assay [1] was above 100 µM; in assay [2], above 100 µM; in assay [3], above 100 µM; in assay [4], 40 µM; in assay [5], above 10 µM; in assay [6] it was above 100 µM. The TGI in [7] is above 100 µM; in [8] it was above 100 µM; in assay [9], above 100 µM; in assay [10], 48.6 µM.

For `CC1(C)N=C(N)N=C(N)N1c1cccc(CSc2ccccc2)c1`, the TGI is above 100 µM in assay [1]; 29.1 µM in assay [3]; 68 µM in assay [4]; above 100 µM in [5]; 11.2 µM in [6]; above 100 µM in [7]. The results for the TGI in [8], in assay [9] and in assay [10] were above 100 µM, above 100 µM and 95.9 µM, respectively.

Regarding `COC1CCC(OC2CC(C3(C)CCC4(CC(O)C(C)C(C(C)/C=C(\C)C(=O)C(C)CC(C)C(=O)O)O4)O3)OC3(OC(C4OC(O)(CO)C(C)CC4C)CC3C)C2C)OC1C` (stereo unspecified), the TGI came out at 4.9 µM in assay [1]; 0.509 µM in assay [2]; 0.175 µM in assay [3]; 1.15 µM in assay [4]; 0.287 µM in [6]; 0.103 µM in assay [7]. For the same molecule, the TGI is 0.564 µM in assay [8], below 0.0386 µM in assay [9] and 0.225 µM in assay [10].

Turning to `COc1ccc(CNc2nc3ccccc3nc2-c2cccs2)cc1`, the TGI in assay [1] is above 100 µM; in assay [2], above 100 µM; in assay [3] it was above 100 µM; in assay [4], 99.8 µM; in assay [5] it was above 100 µM; in [7], above 100 µM. Moreover, the TGI in [8], in assay [9] and in assay [10] was above 100 µM in each case.
